Assay: HBV DNA Quantification Assay: A HepG2 cell line overexpressing the HBV virus attachment receptor sodium-taurocholate cotransporting polypeptide (NTCP) was grown to confluency in DMEM growth medium, Dulbecco's Modified Eagle Medium without sodium pyruvate (Life Technologies, Rockville, Md.) supplemented with 10% FBS (Thermo Scientific, Waltham, Md.), 1% penicillin/streptomycin (Life Technologies, Rockville, Md.) and 2 mM L-glutamine (Life Technologies, Rockville, Md.) in T175 flasks. Cells were infected with HBV AD38 viral particles (Texcell, Frederick, USA) at 4000 genome equivalents per cell. After allowing viral infection to take place for 4 days, the infected cells were harvested from the flasks by trypsinization, washed twice with OptiMEM (Life Technologies, Rockville, Md.) and re-suspended in DMEM containing 2% FBS and 1% DMSO at a density of 0.25E6 cells/ml. Infected cells were seeded on 384 well collagen coated plates (Greiner, Austria) at a density of 20,000 cells/well containing serially diluted compounds of the present disclosure or DMSO (0.5%) in a final volume of 80 μl. The assay plates were incubated for a period of 5 days and the antiviral activity of the test compounds were assayed by detecting the presence of HBV DNA in the culture supernatant using the QuantiGene™ 2.0 nucleic acid quantification kit (Affymetrix, Santa Clara, Calif.).The culture supernatant was harvested and treated with lysis buffer containing Proteinase K (Affymetrix, Santa Clara, Calif.). The supernatant was incubated with HBV viral DNA specific probes (Affymetrix, Santa Clara, Calif.) for 30 minutes at 55° C. This was followed by addition of 0.2M NaOH for 30 minutes at room temperature to denature the DNA, followed by addition of Neutralization buffer (Affymetrix, Santa Clara, Calif.). The resulting lysed and neutralized supernatant was then added to QuantiGene™ 2.0 384 well plates coated with capture oligonucleotides and incubated overnight at 55° C. The HBV specific probe set consists of Capture Extender oligonucleotides (CE's) and blocking probes. Following the overnight incubation, the wells were incubated for one hour sequentially with a Pre-Amplifier, Amplifier and Labeled probes conjugated to alkaline phosphatase with a wash step between incubations. After the final wash step, the alkaline phosphatase substrate (Luminol APS5) was added and the resulting luminescence signal was read in an EnVision Multilabel Plate Reader (PerkinElmer, Santa Clara, Calif.). The EC50 values were calculated from the fit of the dose-response curves to a four-parameter equation.

Structure (SMILES)	EC50 [nM]
CC(NC(=O)C(=O)c1c(Cl)c(C(=O)Nc2ccc(F)c(C#N)c2)n2c1CCC2)C(F)(F)F (centres undefined)	27.1
Cc1c(C(=O)C(=O)NC2(C(=O)N3CC4(C3)CN(S(C)(=O)=O)C4)CC(F)(F)C2)c2n(c1C(=O)Nc1ccc(F)c(C#N)c1)CCC2	112
Cc1c(C(=O)C(=O)NC2(C(=O)N3CC4(COC4)C3)CC(F)(F)C2)c2n(c1C(=O)Nc1ccc(F)c(C#N)c1)CCC2	32.3
CNC(=O)C1(NC(=O)C(=O)c2c(C)c(C(=O)OC)n3c2C[C@H]2C[C@H]23)CC(F)(F)C1	8.8
